This note sets out measurements from US7135466B2 (Kirin Beer Kabushiki Kaisha, priority 1999, dated 2006).

Broadly, the IC50 is the concentration that gives 50% inhibition. A word on the inhibition: it is the percentage by which the read-out fell short of the control.

This assay concerns the target T1, PDGF-Ra (Homo sapiens, UniProt P16234).
T1 construct: host or cells: G-292 human osteosarcoma cells
The experiment in a line: Inhibitory activity against PDGF-Ra phosphorylation by PDGF-AA stimulation using G292. The assay is classed as cell-based. The settings on record: for IC50: > means inhibition at indicated concentration not more than 50%, < and << not less than 50%, read-out: PDGF (E) IC50; for inhibition at 0.1 µM: G292, figure within parentheses in >100( ), at 100 nM, read-out: PDGF (E) inhibition (%) at 100 nM. An outline of the steps:
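Phosphorylated PDGF-Ra was measured colorimetrically (450 nm) after tyrosine-phosphorylated proteins from G-292 lysates were bound to PY-20-coated wells and detected with anti-PDGF-Ra antibody. Compound preincubation lasted 1 hr, followed by 50 ng/ml PDGF-AA for 5 min.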

T1 sequence (P16234 24-1089): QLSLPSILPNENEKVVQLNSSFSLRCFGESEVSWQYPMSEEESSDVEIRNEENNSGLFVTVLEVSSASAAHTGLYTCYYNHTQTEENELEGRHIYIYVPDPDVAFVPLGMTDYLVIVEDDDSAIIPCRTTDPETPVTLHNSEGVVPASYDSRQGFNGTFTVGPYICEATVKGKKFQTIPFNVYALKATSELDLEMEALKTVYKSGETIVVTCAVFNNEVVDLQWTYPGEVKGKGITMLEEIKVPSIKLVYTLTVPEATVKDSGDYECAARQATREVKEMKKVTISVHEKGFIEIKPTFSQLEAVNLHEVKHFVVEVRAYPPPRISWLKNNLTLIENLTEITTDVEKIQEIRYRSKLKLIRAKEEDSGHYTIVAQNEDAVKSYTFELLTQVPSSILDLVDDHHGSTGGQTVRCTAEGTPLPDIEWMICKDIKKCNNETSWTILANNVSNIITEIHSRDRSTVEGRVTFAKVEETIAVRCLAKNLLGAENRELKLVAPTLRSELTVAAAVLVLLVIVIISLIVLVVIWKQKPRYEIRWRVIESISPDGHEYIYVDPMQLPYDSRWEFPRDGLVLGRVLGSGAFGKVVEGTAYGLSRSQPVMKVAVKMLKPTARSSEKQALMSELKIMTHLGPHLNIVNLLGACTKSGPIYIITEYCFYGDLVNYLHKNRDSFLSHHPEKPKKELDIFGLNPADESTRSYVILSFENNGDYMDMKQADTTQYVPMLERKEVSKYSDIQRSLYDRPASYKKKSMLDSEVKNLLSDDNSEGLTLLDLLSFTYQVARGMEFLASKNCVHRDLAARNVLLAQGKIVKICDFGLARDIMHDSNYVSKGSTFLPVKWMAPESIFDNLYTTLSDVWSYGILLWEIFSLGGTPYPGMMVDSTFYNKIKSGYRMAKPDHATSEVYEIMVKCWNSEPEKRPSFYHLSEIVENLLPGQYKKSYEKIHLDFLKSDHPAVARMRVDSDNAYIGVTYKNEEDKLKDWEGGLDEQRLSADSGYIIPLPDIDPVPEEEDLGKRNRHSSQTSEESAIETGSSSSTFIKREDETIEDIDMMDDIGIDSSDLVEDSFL

In the case of `CCC(Oc1ccccc1)C(=O)NC(=S)Nc1ccc(Oc2ccnc3cc(OC)c(OC)cc23)cc1` (centres unmarked) [Example 741, N-{4-[(6,7-Dimethoxy-4-quinolyl)oxy]phenyl}-N′-(2-phenoxybutanoyl)thiourea], the half-maximal inhibitory concentration (IC50) amounted to 49 nM.

For the compound `CCC(Oc1ccccc1)C(=O)NC(=S)Nc1ccc(Oc2ccnc3cc(OC)c(OC)cc23)c(Cl)c1` (centres unmarked) [Example 742, N-{3-Chloro-4-[(6,7-dimethoxy-4-quinolyl)oxy]phenyl}-N′-(2-phenoxybutanoyl)thiourea], the IC50 came to 92 nM.

For `COc1cc2nccc(Oc3ccc(NC(=S)NC(=O)[C@H](C)c4ccccc4)cc3Cl)c2cc1OC` [Example 744, N-{3-Chloro-4-[(6,7-dimethoxy-4-quinolyl)oxy]phenyl}-N′-[(2R)-2-phenylpropanoyl]thiourea], the concentration for half-maximal inhibition (IC50) is 40 nM.

With `COc1cc2nccc(Oc3ccc(NC(=S)NC(=O)C(C)Oc4ccccc4)cc3)c2cc1OC` (centres unmarked) [Example 745, N-{4-[(6,7-Dimethoxy-4-quinolyl)oxy]phenyl}-N′-(2-phenoxypropanoyl)thiourea], the IC50 is 53 nM.

Turning to `COc1cc2nccc(Oc3ccc(NC(=S)NC(=O)C(C)Oc4ccccc4)cc3Cl)c2cc1OC` (centres unmarked) [Example 746, N-{3-Chloro-4-[(6,7-dimethoxy-4-quinolyl)oxy]phenyl}-N′-(2-phenoxypropanoyl)thiourea], the 50% inhibitory concentration (IC50) is greater than 100 nM and the inhibition at 0.1 µM worked out at 31%.

`CCC(C(=O)NC(=S)Nc1ccc(Oc2ccnc3cc(OC)c(OC)cc23)c(Cl)c1)c1ccccc1` (centres unmarked) [Example 748, N-{3-Chloro-4-[(6,7-dimethoxy-4-quinolyl)oxy]phenyl}-N′-(2-phenylbutanoyl)thiourea]: the 50% inhibitory concentration (IC50) worked out at 85 nM.

With `CCCCOc1ccc(C(=O)NC(=S)Nc2ccc(Oc3ccnc4cc(OC)c(OC)cc34)c(Cl)c2)cc1` [Example 752, N-(4-Butoxybenzoyl)-N′-{3-chloro-4-[(6,7-dimethoxy-4-quinolyl)oxy]phenyl}thiourea], the half-inhibitory concentration (IC50) was greater than 100 nM and the inhibition at 0.1 µM came to 37%.

Regarding `CCCCCOc1ccc(C(=O)NC(=S)Nc2ccc(Oc3ccnc4cc(OC)c(OC)cc34)c(Cl)c2)cc1` [Example 754, N-{3-Chloro-4-[(6,7-dimethoxy-4-quinolyl)oxy]phenyl}-N′-[4-(pentyloxy)benzoyl]thiourea], the concentration for half-maximal inhibition (IC50) was greater than 100 nM and the inhibition at 0.1 µM stood at 7%.

For the compound `CCCCCCOc1ccc(C(=O)NC(=S)Nc2ccc(Oc3ccnc4cc(OC)c(OC)cc34)cc2)cc1` [Example 755, N-{4-[(6,7-Dimethoxy-4-quinolyl)oxy]phenyl}-N′-[4-(hexyloxy)benzoyl]thiourea], the IC50 is greater than 100 nM and the inhibition at 0.1 µM was determined as 3%.

With `COc1cc2nccc(Oc3ccc(NC(=S)NC(=O)C(C)(C)Oc4ccc(Cl)cc4)cc3)c2cc1OC` [Example 757, N-[2-(4-Chlorophenoxy)-2-methylpropanoyl]-N′-{4-[(6,7-dimethoxy-4-quinolyl)oxy]phenyl}thiourea], the 50% inhibitory concentration (IC50) was greater than 100 nM and the inhibition at 0.1 µM was found to be 45%.

On to `COc1cc2nccc(Oc3ccc(NC(=S)NC(=O)C(C)(C)Oc4ccc(Cl)cc4)cc3Cl)c2cc1OC` [Example 758, N-{3-Chloro-4-[(6,7-dimethoxy-4-quinolyl)oxy]phenyl}-N′-[2-(4-chlorophenoxy)-2-methylpropanoyl]thiourea], for which the concentration for half-maximal inhibition (IC50) is greater than 100 nM and the inhibition at 0.1 µM amounted to 18%.

As for `COc1cc2nccc(Oc3ccc(NC(=S)NC(=O)C(OC)c4ccccc4)cc3Cl)c2cc1OC` (centres unmarked) [Example 762, N-{3-Chloro-4-[(6,7-dimethoxy-4-quinolyl)oxy]phenyl}-N′-(2-methoxy-2-phenylacetyl)thiourea], the IC50 was greater than 100 nM.

On to `COc1cc2nccc(Oc3ccc(NC(=S)NC(=O)C4CCCO4)cc3Cl)c2cc1OC` (centres unmarked) [Example 766, N-{3-Chloro-4-[(6,7-dimethoxy-4-quinolyl)oxy]phenyl}-N′-tetrahydro-2-furanylcarbonylthiourea], for which the 50% inhibitory concentration (IC50) was greater than 100 nM and the inhibition at 0.1 µM stood at 45%.
